Laboratory results from ChEMBL document CHEMBL3580582, “The Cephalostatins. 23. Conversion of Hecogenin to a Steroidal 1,6-Dioxaspiro[5.5]nonane Analogue for Cephalostatin 11” (2015).
≈ marks a conversion by molar mass, not a printed value.

Tests used:
Format in all cases: functional
P388 = experiment: Cytotoxicity against mouse P388 cells assessed as growth inhibition after 48 hrs by coulter particle counter analysis; conditions: P388, 48 h, read-out: ED50 (the source's name)
[1] = Cytotoxicity against human NCI60 cells by SRB assay
[2] = Cytotoxicity against human NCI60 cells

For `CC(=O)OC[C@@](C)(O)CCC1=C(C)[C@H]2[C@H](C[C@H]3[C@@H]4CC[C@H]5CC(=O)CC[C@]5(C)[C@H]4CC(=O)[C@@]32C)O1`, the EC50 (P388) was 19.3 µg/mL (≈ 39.7 µM).

In the case of `C=C(C)CCC1=C(C)[C@H]2[C@H](C[C@H]3[C@@H]4CC[C@H]5CC(=O)CC[C@]5(C)[C@H]4CC(=O)[C@@]32C)O1`, the EC50 (P388) is reported as 14.5 µg/mL (≈ 35.3 µM).

Work on `C[C@@H]1[C@]2(O[C@H]3C=C4[C@@H]5CC[C@H]6Cc7nc8c(nc7C[C@]6(C)[C@H]5C[C@@H](O)[C@]4(C)[C@]31O)C[C@@H]1CC[C@H]3C4=C[C@@H]5O[C@]6(CCC(C)(C)O6)[C@@H](C)[C@@H]5[C@@]4(C)[C@H](O)C[C@@H]3[C@@]1(C)C8)O[C@@](C)(CO)C[C@H]2O` yielded a GI50 [1] of 0.48 nM.

In the case of `C[C@@H]1[C@]2(O[C@H]3C=C4[C@@H]5CC[C@H]6Cc7nc8c(nc7C[C@]6(C)[C@H]5C[C@@H](O)[C@]4(C)[C@]31O)C[C@@H]1CC[C@H]3C4=CC[C@@H]5[C@H](C)[C@@]6(OC[C@]45C(=O)C[C@@H]3[C@@]1(C)C8)OC(C)(C)C[C@H]6O)O[C@](C)(CO)C[C@H]2O` [CEPHALOSTATIN 1], the GI50 [2] is reported as 1.8 nM.

In the case of `CC1=C(CC[C@](C)(O)CO)O[C@H]2C[C@H]3[C@@H]4CC[C@H]5CC(=O)CC[C@]5(C)[C@H]4CC(=O)[C@]3(C)[C@@H]12`, the EC50 (P388) is reported as 23.4 µg/mL (≈ 52.6 µM).

With `C[C@@H]1[C@]2(O[C@H]3C=C4[C@@H]5CC[C@H]6Cc7nc8c(nc7C[C@]6(C)[C@H]5C[C@@H](O)[C@]4(C)[C@]31O)C[C@@H]1CC[C@H]3C4=C[C@@H]5O[C@]6(CCC(C)(C)O6)[C@@H](C)[C@@H]5[C@@]4(C)[C@H](O)C[C@@H]3[C@@]1(C)C8)O[C@](C)(CO)C[C@H]2O` the GI50 [1] was 14 nM.

`CC1=C(CCC(C)CCl)O[C@H]2C[C@H]3[C@@H]4CC[C@H]5CC(=O)CC[C@]5(C)[C@H]4CC(=O)[C@]3(C)[C@@H]12` (some centres undefined) showed an EC50 (P388) of over 100 µg/mL.

`CC(=O)O[C@H]1CC[C@@]2(C)[C@@H](CC[C@@H]3[C@@H]2CC(=O)[C@@]2(C)[C@H]3C[C@@H]3OC(CCC(C)CCl)=C(C)[C@@H]32)C1` (some centres undefined) showed an EC50 (P388) of over 100 µg/mL.

For `CC(=O)OC[C@]1(C)CC[C@@]2(O[C@H]3C[C@H]4[C@@H]5CC[C@H]6CC(=O)CC[C@]6(C)[C@H]5CC(=O)[C@]4(C)[C@H]3[C@@H]2C)O1`, the EC50 (P388) was over 10 µg/mL.
